Activity calls are given as the source filed them. How the calls were made is not given here.

The subject of the data set is CCRIS mutagenicity, Ames/micronucleus/aberration tests. As to the kind of experiment: CCRIS mutagenicity studies.
Setting [1] is: Test System: AMES SALMONELLA TYPHIMURIUM, Strain/Indicator: TA98, Metabolic Activation: NONE, Method: PREINCUBATION
Where [2] appears, read: Test System: AMES SALMONELLA TYPHIMURIUM, Strain/Indicator: TA100, Metabolic Activation: NONE, Method: STANDARD PLATE.
Where [3] appears, read: Test System: AMES SALMONELLA TYPHIMURIUM, Strain/Indicator: TA98, Metabolic Activation: NONE, Method: STANDARD PLATE.
The mark [4] stands for this setting: Test System: AMES SALMONELLA TYPHIMURIUM, Strain/Indicator: TA98, Metabolic Activation: RAT, LIVER, S-9, AROCLOR 1254, Method: STANDARD PLATE.
Where [5] appears, read: Test System: AMES SALMONELLA TYPHIMURIUM, Strain/Indicator: TA100, Metabolic Activation: RAT, LIVER, S-9, AROCLOR 1254, Method: STANDARD PLATE.

Take `O=[N+]([O-])c1ccc(-c2ccccc2)cc1`: the mutagenic call by setting is: (Test System: AMES SALMONELLA TYPHIMURIUM, Strain/Indicator: TA98(1,8-DNP6), Metabolic Activation: NONE) “inactive; negative”; (Test System: AMES SALMONELLA TYPHIMURIUM, Strain/Indicator: TA98(1,8-DNP6), Metabolic Activation: NONE, Method: STANDARD PLATE) “active; positive”; (Test System: AMES SALMONELLA TYPHIMURIUM, Strain/Indicator: TA98(1,8-DNP6), Metabolic Activation: RAT, LIVER, S-9, AROCLOR 1254) “inactive; negative”; (Test System: AMES SALMONELLA TYPHIMURIUM, Strain/Indicator: TA98(NR), Metabolic Activation: NONE) “inactive; negative”; (Test System: AMES SALMONELLA TYPHIMURIUM, Strain/Indicator: TA98(NR), Metabolic Activation: NONE, Method: STANDARD PLATE) “inactive; negative”; (Test System: AMES SALMONELLA TYPHIMURIUM, Strain/Indicator: TA98(NR), Metabolic Activation: RAT, LIVER, S-9, AROCLOR 1254) “inactive; negative”. Further, the mutagenic call is “inactive; negative” (Test System: AMES SALMONELLA TYPHIMURIUM, Strain/Indicator: TA98, Metabolic Activation: NONE); “active; positive” under setting [1]; “inactive; negative” (Test System: AMES SALMONELLA TYPHIMURIUM, Strain/Indicator: TA98, Metabolic Activation: RAT, LIVER, S-9, AROCLOR 1254); “active; positive” (Test System: AMES SALMONELLA TYPHIMURIUM, Strain/Indicator: TA98, Metabolic Activation: RAT, LIVER, S-9, PCB (10%), Method: PREINCUBATION); “active; positive” (Test System: AMES SALMONELLA TYPHIMURIUM, Strain/Indicator: TA98, Metabolic Activation: RAT, LIVER, S-9, PCB, Method: PREINCUBATION); “active; positive” (Test System: AMES SALMONELLA TYPHIMURIUM, Strain/Indicator: TA98, Metabolic Activation: RAT, LIVER, S-100 (CYTOSOL), Method: PREINCUBATION). In addition, the mutagenic call is “active; positive” (Test System: AMES SALMONELLA TYPHIMURIUM, Strain/Indicator: TA98, Metabolic Activation: RAT, LIVER, S-100 (MICROSOMES), Method: PREINCUBATION); “active; positive” (Test System: AMES SALMONELLA TYPHIMURIUM, Strain/Indicator: TA98, Metabolic Activation: S-9, Method: STANDARD PLATE); “inactive; negative” (Test System: AMES SALMONELLA TYPHIMURIUM, Strain/Indicator: TA100(NR), Metabolic Activation: NONE); “inactive; negative” (Test System: AMES SALMONELLA TYPHIMURIUM, Strain/Indicator: TA100(NR), Metabolic Activation: RAT, LIVER, S-9, AROCLOR 1254); “inactive; negative” (Test System: AMES SALMONELLA TYPHIMURIUM, Strain/Indicator: TA100, Metabolic Activation: NONE); “active; positive” under setting [2]. Moreover, the mutagenic call by setting is: (Test System: AMES SALMONELLA TYPHIMURIUM, Strain/Indicator: TA100, Metabolic Activation: RAT, LIVER, S-9, AROCLOR 1254) “inactive; negative”; (Test System: AMES SALMONELLA TYPHIMURIUM, Strain/Indicator: TA100, Metabolic Activation: S-9, Method: STANDARD PLATE) “active; positive”; (Test System: AMES SALMONELLA TYPHIMURIUM, Strain/Indicator: TA104, Metabolic Activation: NONE) “inactive; negative”; (Test System: AMES SALMONELLA TYPHIMURIUM, Strain/Indicator: TA104, Metabolic Activation: RAT, LIVER, S-9, AROCLOR 1254) “inactive; negative”; (Test System: CHINESE HAMSTER OVARY, Strain/Indicator: CHO-K1-BH4 (HGPRT), Metabolic Activation: NONE, Method: SUSPENSION/PLATE) “inactive; negative”; (Test System: CHINESE HAMSTER OVARY, Strain/Indicator: CHO-K1-BH4 (HGPRT), Metabolic Activation: RAT, LIVER, S-9, AROCLOR, Method: SUSPENSION/PLATE) “inactive; negative”. The mutagenic call (Test System: UDS RAT HEPATOCYTES, Strain/Indicator: THY INCORP, Metabolic Activation: NONE, Method: AUTORADIOGRAPHY (SERUM-FREE MEDIA)) was “active; positive”.
For `O=Nc1c(O)ccc2ccccc12`, under setting [1], the mutagenic call is “inactive; negative”.
On to `Cc1cc(C)nc(SC(=O)OC(C)(C)C)n1`, for which the mutagenic call was “inactive; negative” under setting [3]; “inactive; negative” under setting [4]; “inactive; negative” under setting [2]; “inactive; negative” under setting [5]; “inactive; negative” (Test System: AMES SALMONELLA TYPHIMURIUM, Strain/Indicator: TA1535, Metabolic Activation: NONE, Method: STANDARD PLATE); “inactive; negative” (Test System: AMES SALMONELLA TYPHIMURIUM, Strain/Indicator: TA1535, Metabolic Activation: RAT, LIVER, S-9, AROCLOR 1254, Method: STANDARD PLATE). The mutagenic call was “inactive; negative” (Test System: AMES SALMONELLA TYPHIMURIUM, Strain/Indicator: TA1537, Metabolic Activation: NONE, Method: STANDARD PLATE) and “inactive; negative” (Test System: AMES SALMONELLA TYPHIMURIUM, Strain/Indicator: TA1537, Metabolic Activation: RAT, LIVER, S-9, AROCLOR 1254, Method: STANDARD PLATE).
For the molecule `Oc1cc(Cl)cc(Cl)c1`, the mutagenic call is, setting by setting: (Test System: AMES SALMONELLA TYPHIMURIUM, Strain/Indicator: TA98, Metabolic Activation: HAMSTER, LIVER, S-9, AROCLOR 1254, Method: PREINCUBATION) “inactive; negative”; under setting [1], “inactive; negative”; (Test System: AMES SALMONELLA TYPHIMURIUM, Strain/Indicator: TA98, Metabolic Activation: RAT, LIVER, S-9, AROCLOR 1254, Method: PREINCUBATION) “inactive; negative”; (Test System: AMES SALMONELLA TYPHIMURIUM, Strain/Indicator: TA100, Metabolic Activation: HAMSTER, LIVER, S-9, AROCLOR 1254, Method: PREINCUBATION) “inactive; negative”; (Test System: AMES SALMONELLA TYPHIMURIUM, Strain/Indicator: TA100, Metabolic Activation: NONE, Method: PREINCUBATION) “inactive; negative”; (Test System: AMES SALMONELLA TYPHIMURIUM, Strain/Indicator: TA100, Metabolic Activation: RAT, LIVER, S-9, AROCLOR 1254, Method: PREINCUBATION) “inactive; negative”. Moreover, the mutagenic call is, setting by setting: (Test System: AMES SALMONELLA TYPHIMURIUM, Strain/Indicator: TA1535, Metabolic Activation: HAMSTER, LIVER, S-9, AROCLOR 1254, Method: PREINCUBATION) “inactive; negative”; (Test System: AMES SALMONELLA TYPHIMURIUM, Strain/Indicator: TA1535, Metabolic Activation: NONE, Method: PREINCUBATION) “inactive; negative”; (Test System: AMES SALMONELLA TYPHIMURIUM, Strain/Indicator: TA1535, Metabolic Activation: RAT, LIVER, S-9, AROCLOR 1254, Method: PREINCUBATION) “inactive; negative”; (Test System: AMES SALMONELLA TYPHIMURIUM, Strain/Indicator: TA1537, Metabolic Activation: HAMSTER, LIVER, S-9, AROCLOR 1254, Method: PREINCUBATION) “inactive; negative”; (Test System: AMES SALMONELLA TYPHIMURIUM, Strain/Indicator: TA1537, Metabolic Activation: NONE, Method: PREINCUBATION) “inactive; negative”; (Test System: AMES SALMONELLA TYPHIMURIUM, Strain/Indicator: TA1537, Metabolic Activation: RAT, LIVER, S-9, AROCLOR 1254, Method: PREINCUBATION) “inactive; negative”.
For `ONc1ncnc2c1ncn2Cc1ccccc1`, the mutagenic call by setting is: (Test System: AMES SALMONELLA TYPHIMURIUM, Strain/Indicator: TA97, Metabolic Activation: NONE, Method: STANDARD PLATE) “active; positive”; (Test System: AMES SALMONELLA TYPHIMURIUM, Strain/Indicator: TA97, Metabolic Activation: RAT, LIVER, S-9, AROCLOR 1254, Method: STANDARD PLATE) “active; positive”; under setting [3], “inactive; negative”; under setting [4], “active; positive”; under setting [2], “active; positive”; under setting [5], “active; positive”.
For `O=[N+]([O-])/C=C/c1ccc([N+](=O)[O-])o1`, under setting [1], the mutagenic call was “active; positive”.
As for `COC(=O)[C@@H]1[C@H]2C[C@H]3c4[nH]c5ccccc5c4CCN3C[C@@H]2CC[C@@H]1O`, the mutagenic call is “inactive; inconclusive (previous evaluation negative)” (Test System: Mouse lymphoma, Strain/Indicator: L5178Y (tk+/tk-), Metabolic Activation: None, Method: Suspension/plate) and “inactive; inconclusive (previous evaluation negative)” (Test System: Mouse lymphoma, Strain/Indicator: L5178Y (tk+/tk-), Metabolic Activation: Rat, Liver, S-9, Aroclor 1254, Method: Suspension/plate).
